From patent publication EP4454666A1, “IN VIVO IMAGING OF AN ALS BIOMARKER AND MEANS THEREFOR” (Société de Commercialisation des Produits de la Recherche …, priority 2023, dated 2024)

Assays:
[1] = test system: mSOD1 aggregates; experiment: PET imaging of spinal cord mSOD1 aggregates (spots); format: in vivo, mice
Procedure: Under isoflurane anesthesia. […] Imaging days post administration of the radiotracer were optimized as the first results were collected the last groups being imaged only at days 7 and 10. Once the radiotracer administrated, the mouse was placed in its cage to recuperate from anesthesia and returned to the housing facility.
PET imaging was performed on days 7 and 10 following the administration of the radiotracer. Imaging was done on a LabPET-2 PET scanner (https://imagingrt.com/. Bore size: 72 mm. Axial FOV: 50 mm. Transaxial FOV: 60 mm. Spatial resolution: 0.74 mm (Isotropic at 5 mm from center). Detection efficiency (250-650 keV): 3.3% dedicated to small animal imaging. Preparation and PET imaging was done under isoflurane anesthesia delivered through a nose cone (Induction 2-3% isoflurane then 1 - 2.5%. 1-1.5 L of oxygen/min) the level of anesthesia being modulated if required during PET imaging. An ophthalmic gel was applied to the eyes to prevent eye dryness. The mouse was positioned within the field of view of the PET imager and a 30 min static acquisition was performed then the bed of the imager was moved within the CT module of the LabPET8 scanner, and a 2 min CT acquisition was performed. During PET imaging, the mouse was kept warm using pulsed hot air maintained at 32 °C, the environment temperature and respiration rate being monitored throughout the imaging procedure (PCSAM. Model 1025T Monitoring & Gating System, SA Instruments Inc.). Once the imaging procedure was completed, the mouse was placed in its cage to recuperate from anesthesia and returned to the housing facility.
PET data were acquired in list mode and reconstructed on a 200 x 200 x 168 grid with 0.3 x 0.3 x 0.3 mm^3 voxel size using 16 iterations and 8 subset of the 3D Ordered Subset Expectation Maximization (OSEM) algorithm. All PET images were corrected for the physical radionuclide decay of ^89Zr and random coincidences. […]
Once reconstructed the PET images were visually inspected to identify potential mSOD1 aggregates, which appear as discrete radiotracer spots within the spinal cord. […] The criteria for validity were that the spot was well defined within the spinal cord and not contaminated by radioactivity spilled in form the presence of the radiotracer in the anterior portion of the vertebra. […]
Once located region of interest (ROI) was then traced around these spots and the measure radiotracer content corrected for the partial volume effect (PVE) using the recovery coefficient and for spill-in from the presence of free ^89Zr in the anterior part of the vertebra (Fig. 4). […] The radioactivity content of m-SOD1 aggregated was expressed in terms of %ID/g.

[2] = biological target: T1, denatured human SOD1 (human, UniProt P00441 2-154); experiment: direct ELISA on denatured human SOD1 (Fig. 6A)
T1 construct: also called misfolded SOD1; mSOD1

[3] = biological target: T1, denatured human SOD1; experiment: direct ELISA on denatured human SOD1 (mSOD1)
[4] = biological target: T1, denatured human SOD1; experiment: ELISA on misfolded SOD1 (refers to Fig. 6)

T1 sequence (P00441 2-154 limits assumed): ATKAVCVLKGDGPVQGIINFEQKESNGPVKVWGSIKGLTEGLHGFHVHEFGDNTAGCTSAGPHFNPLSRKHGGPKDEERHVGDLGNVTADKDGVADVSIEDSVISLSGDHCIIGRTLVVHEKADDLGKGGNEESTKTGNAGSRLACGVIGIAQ

Row | Molecule | EC50 [3] | number of detected spots including false positive spots ([1]; day 7 post administration) | number of detected spots including false positive spots ([1]; day 10 post administration) | also measured
1 | Degly-^89Zr-DFO-AP-101: ^89Zr-DFO-AP-101 in which the AP-101 antibody is deglycosylated | – | 6 spots | 12 spots | –
2 | ^89Zr-DFO-AP-101: AP-101 antibody, SCN-Bn-DFO as bifunctional chelator and ^89Zr as radionuclide; PET radiotracer | – | 6 spots | 18 spots | –
3 | AP-101 (antibody, V domains shown) VH: EVQLVESGAEVKKPGASVTLSCKASGYTFTAYYIHWVRQAREQGLEWMGVINPSTGTTFYAQNFPDRVSVTRDTSTSTVFMELHNLKSEDTAVYYCARAISEHGSGSYSPYYWGQGTLVTVSS VL: SYVLTQPPSVSVSLGQMAAITCSGEALPKKYGYWYQQKPGQVPVLLIYRDVERPSGVPDRFSGSSSGTMVTLTISGVQAEDEADYYCLSADSSGTWVFGGGTKLTVL | – | – | – | EC50 [2]: 0.2 nM

Further lines, with some results ahead:

Row | EC50 [3] | Molecule | number of detected spots including false positive spots ([1]; day 7 post administration) | number of detected spots including false positive spots ([1]; day 10 post administration) | also measured
4 | 0.3 nM | ^natZr-DFO-AP-101 (antibody, human IgG1, V domains shown, p-SCN-Bn desferoxamine (DFO) chelator conjugated randomly on lysine residues; p-SCN-Bn desferoxamine (DFO) chelator conjugated randomly on lysine residues, DFO:AP-101 ratio 1.1:1.0; natZr complexed, also called DFO-α-miSOD1) VH: EVQLVESGAEVKKPGASVTLSCKASGYTFTAYYIHWVRQAREQGLEWMGVINPSTGTTFYAQNFPDRVSVTRDTSTSTVFMELHNLKSEDTAVYYCARAISEHGSGSYSPYYWGQGTLVTVSS VL: SYVLTQPPSVSVSLGQMAAITCSGEALPKKYGYWYQQKPGQVPVLLIYRDVERPSGVPDRFSGSSSGTMVTLTISGVQAEDEADYYCLSADSSGTWVFGGGTKLTVL | – | – | EC50 [4]: 0.5 nM
5 | 2.4 nM | Degly-^natZr-DFO-AP-101 (antibody, human IgG1, V domains shown, DFO chelator conjugated randomly on lysine residues; Fc N-glycans removed with EndoS2 (GlycINATOR); DFO chelator on lysine residues, average 0.6 DFO per antibody; natZr complexed) VH: EVQLVESGAEVKKPGASVTLSCKASGYTFTAYYIHWVRQAREQGLEWMGVINPSTGTTFYAQNFPDRVSVTRDTSTSTVFMELHNLKSEDTAVYYCARAISEHGSGSYSPYYWGQGTLVTVSS VL: SYVLTQPPSVSVSLGQMAAITCSGEALPKKYGYWYQQKPGQVPVLLIYRDVERPSGVPDRFSGSSSGTMVTLTISGVQAEDEADYYCLSADSSGTWVFGGGTKLTVL | – | – | –
